Laboratory results: patent US20240058264A1, “PHARMACEUTICAL FORMULATIONS OF NINTEDANIB FOR INTRAOCULAR USE” (Boehringer Ingelheim International GmbH, priority 2022, published 2024)
≈ marks a conversion by molar mass, not a printed value.

Assay: Water solubility
Type: physicochemical

SMILES	solubility [µg/mL]	solubility in water
COC(=O)c1ccc2c(c1)NC(=O)/C2=C(\Nc1ccc(N(C)C(=O)CN2CCN(C)CC2)cc1)c1ccccc1 [nintedanib esylate]	2800 (≈ 5.19 mM)	
COC(=O)c1ccc2c(c1)NC(=O)/C2=C(\Nc1ccc(N(C)C(=O)CN2CCN(C)CC2)cc1)c1ccccc1 [free base of nintedanib, 3-Z-[1-(4-(N-((4-methyl-piperazin-1-yl)-methylcarbonyl)-N-methyl-amino)-anilino)-1-phenyl-methylene]-6-methoxycarbonyl-2-indolinone]		very poor
